From patent publication US9795140B2, “Molecules having pesticidal utility, and intermediates, compositions, and processes, related thereto” (priority 2015, dated 2017)

Experiments:
Format in all cases: in vivo
[1] = tested on: Cabbage Looper (Trichoplusia ni, TRIPNI); test: Bioassay on Cabbage Looper (CL), 128-well diet tray assay; conditions: 168 h, 50 μg/cm^2 on artificial diet, second instar larvae, 25° C., five to seven days, average of eight wells, read-out: CL % Control (or Mortality) rating
In short: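 Second-instar T. ni larvae (one to five per well) were placed on artificial diet treated with 50 μg/cm^2 compound, applied in 90:10 acetone-water and dried. Trays were held five to seven days at 25 °C under 14:10 light-dark. Percent mortality per well was averaged over eight wells.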

[2] = tested on: Yellow Fever Mosquito (Aedes aegypti, AEDSAE); test: Bioassay on Yellow Fever Mosquito (YFM) larvae, 96-well plate; conditions: about 1 day-old larvae, room temperature, 3 days, scored on mortality
In short: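 Each well was scored for mortality after 3 days at room temperature under a non-evaporative lid. Test molecules came from DMSO masters (4000 ppm stock) diluted with water/acetone 90:10 and dispensed into six replicate plates, which were then infested with roughly 1-day-old larvae in liver-powder water.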

[3] = tested on: Beet Armyworm (Spodoptera exigua, LAPHEG); test: Bioassay on Beet Armyworm (BAW), 128-well diet tray assay; conditions: 168 h, 50 μg/cm^2 on artificial diet, second instar larvae, 25° C., five to seven days, average of eight wells, read-out: BAW % Control (or Mortality) rating
In short: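 Second-instar larvae, one to five per well, placed on artificial diet surface-treated with 50 μg/cm^2 compound applied in 90:10 acetone-water and dried. Held 5–7 days at 25° C., 14:10 light-dark. Percent mortality recorded per well and averaged over eight wells.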

SMILES | mortality at 50 µg/cm2 [1] [%] | YFM % Control (or Mortality) rating [2] | mortality at 50 µg/cm2 [3] [%]
C[C@H](CSCCC(F)(F)F)NC(=O)c1cc(NC(=O)C2C(c3cc(Cl)cc(Cl)c3)C2(Cl)Cl)ccc1Cl (stereo in doubt) [PF2, trans-2-Chloro-5-(2,2-dichloro-3-(3,5-dichlorophenyl)cyclopropane-1-carboxamido)-N—((R)-1-((3,3,3-trifluoropropyl)thio)propan-2-yl)benzamide] | 50 to 100 | A (80-100) | 50 to 100
O=C(NCC(F)(F)F)c1cc(NC(=O)[C@H]2[C@H](c3ccc(Cl)c(Br)c3)C2(Cl)Cl)ccc1Cl (relative stereo) [F109, 5-(trans-3-(3-Bromo-4-chlorophenyl)-2,2-dichlorocyclopropane-1-carboxamido)-2-chloro-N-(2,2,2-trifluoroethyl)benzamide] | 50 to 100 | A (80-100) | 50 to 100
O=C(NCC(F)(F)F)c1cc(NC(=O)[C@H]2[C@H](c3cc(Br)cc(C(F)(F)F)c3)C2(Cl)Cl)ccc1Cl (relative stereo) [F124, 5-(trans-3-(3-Bromo-5-(trifluoromethyl)phenyl)-2,2-dichlorocyclopropane-1-carboxamido)-2-chloro-N-(2,2,2-trifluoroethyl)benzamide] | 50 to 100 | A (80-100) | 50 to 100
O=C(NCC(F)(F)F)c1cc(NC(=O)[C@H]2[C@H](c3ccc(Cl)c(C(F)F)c3)C2(Cl)Cl)ccc1Cl (relative stereo) [F129, 2-Chloro-5-(trans-2,2-dichloro-3-(4-chloro-3-(difluoromethyl)phenyl)cyclopropane-1-carboxamido)-N-(2,2,2-trifluoroethyl)benzamide] | 50 to 100 | A (80-100) | 50 to 100
O=C(NCC(F)(F)F)c1cc(NC(=O)[C@H]2[C@H](c3ccc(Br)c(F)c3)C2(Cl)Cl)ccc1Cl (relative stereo) [F113, 5-(trans-3-(4-Bromo-3-fluorophenyl)-2,2-dichlorocyclopropane-1-carboxamido)-2-chloro-N-(2,2,2-trifluoroethyl)benzamide] | 50 to 100 | A (80-100) | 50 to 100
CSCCN(C)C(=O)c1cc(NC(=O)[C@H]2[C@H](c3cc(Cl)cc(Cl)c3)C2(Cl)Cl)ccc1Cl (relative stereo) [F68, trans-2-Chloro-5-(2,2-dichloro-3-(3,5-dichlorophenyl)cyclopropane-1-carboxamido)-N-methyl-N-(2-(methylthio)ethyl)benzamide] | 50 to 100 | D (No activity noticed in this bioassay) | 50 to 100
O=C(NCC(F)(F)F)c1cc(NC(=O)[C@H]2[C@H](c3ccc(Cl)c(F)c3)C2(Cl)Cl)ccc1Cl (relative stereo) [F120, 2-Chloro-5-(trans-2,2-dichloro-3-(4-chloro-3-fluorophenyl)cyclopropane-1-carboxamido)-N-(2,2,2-trifluoroethyl)benzamide] | 50 to 100 | A (80-100) | 50 to 100
O=C(NCCc1nccs1)c1cc(NC(=O)[C@H]2[C@H](c3cc(Cl)cc(Cl)c3)C2(Cl)Cl)ccc1Cl (relative stereo) [PF12, trans-2-Chloro-5-(2,2-dichloro-3-(3,5-dichlorophenyl)cyclopropane-1-carboxamido)-N-(2-(thiazol-2-yl)ethyl)benzamide] | 50 to 100 | A (80-100) | 50 to 100
NS(=O)(=O)CCCNC(=O)c1cc(NC(=O)[C@H]2[C@H](c3cc(Cl)cc(Cl)c3)C2(Cl)Cl)ccc1Cl (relative stereo) [PF14, trans-2-Chloro-5-(2,2-dichloro-3-(3,5-dichlorophenyl)cyclopropane-1-carboxamido)-N-(3-sulfamoylpropyl)benzamide] | 50 to 100 | D (No activity noticed in this bioassay) | 0 to 50
O=C(NCc1ccc(-n2cncn2)cc1)c1cc(NC(=O)[C@H]2[C@H](c3cc(Cl)cc(Cl)c3)C2(Cl)Cl)ccc1Cl (relative stereo) [PF11, trans-N-(4-(1H-1,2,4-Triazol-1-yl)benzyl)-2-chloro-5-(2,2-dichloro-3-(3,5-dichlorophenyl)cyclopropane-1-carboxamido)benzamide] | 50 to 100 | A (80-100) | 50 to 100
O=C(NCC(F)(F)F)c1cc(NC(=O)[C@H]2[C@H](c3ccc(Br)c(Br)c3)C2(Cl)Cl)ccc1Cl (relative stereo) [F111, 2-Chloro-5-(trans-2,2-dichloro-3-(3,4-dibromophenyl)cyclopropane-1-carboxamido)-N-(2,2,2-trifluoroethyl)benzamide] | 50 to 100 | A (80-100) | 50 to 100
O=C(NCC(F)(F)F)c1cc(NC(=O)[C@H]2[C@H](c3ccc(C(F)F)c(F)c3)C2(Cl)Cl)ccc1Cl (relative stereo) [F133, 2-Chloro-5-(trans-2,2-dichloro-3-(4-(difluoromethyl)-3-fluorophenyl)cyclopropane-1-carboxamido)-N-(2,2,2-trifluoroethyl)benzamide] | 50 to 100 | A (80-100) | 50 to 100
O=C(NCC(F)(F)F)c1cc(NC(=O)[C@H]2[C@H](c3ccc(C(F)(F)F)c(Cl)c3)C2(Cl)Cl)ccc1Cl (relative stereo) [F116, 2-Chloro-5-(trans-2,2-dichloro-3-(3-chloro-4-(trifluoromethyl)phenyl)cyclopropane-1-carboxamido)-N-(2,2,2-trifluoroethyl)benzamide] | 50 to 100 | A (80-100) | 50 to 100
CN(CC1CC(F)(F)C1)C(=O)c1cc(NC(=O)[C@H]2[C@H](c3cc(Cl)cc(Cl)c3)C2(Cl)Cl)ccc1Cl (relative stereo) [F73, trans-2-Chloro-5-(2,2-dichloro-3-(3,5-dichlorophenyl)cyclopropane-1-carboxamido)-N-((3,3-difluorocyclobutyl)methyl)-N-methylbenzamide] | 50 to 100 | A (80-100) | 50 to 100
COCCOCCCNC(=O)c1cc(NC(=O)[C@H]2[C@H](c3cc(Cl)cc(Cl)c3)C2(Cl)Cl)ccc1Cl (relative stereo) [F58, trans-2-Chloro-5-(2,2-dichloro-3-(3,5-dichlorophenyl)cyclopropane-1-carboxamido)-N-(3-(2-methoxyethoxy)propyl)benzamide] | 50 to 100 | A (80-100) | 50 to 100
CCNC(=O)c1cc(NC(=O)[C@H]2[C@H](c3cc(Cl)cc(Cl)c3)C2(Cl)Cl)c(Cl)cc1Cl (relative stereo) [F98, trans-2,4-Dichloro-5-(2,2-dichloro-3-(3,5-dichlorophenyl)cyclopropane-1-carboxamido)-N-ethylbenzamide] | 0 | A (80-100) | 0 to 50
O=C(NCCC(F)(F)F)c1cc(NC(=O)[C@H]2[C@H](c3cc(Cl)cc(Cl)c3)C2(Cl)Cl)cc(Cl)c1Cl (relative stereo) [F94, trans-2,3-Dichloro-5-(2,2-dichloro-3-(3,5-dichlorophenyl)cyclopropane-1-carboxamido)-N-(3,3,3-trifluoropropyl)benzamide] | 50 to 100 | A (80-100) | 50 to 100
CC(C)(NC(=O)c1cc(NC(=O)[C@H]2[C@H](c3cc(Cl)cc(Cl)c3)C2(Cl)Cl)ccc1Cl)c1ccc(F)cc1 (relative stereo) [F97, 2-Chloro-5-(trans-2,2-dichloro-3-(3,5-dichlorophenyl)cyclopropane-1-carboxamido)-N-(2-(4-fluorophenyl)propan-2-yl)benzamide] | 50 to 100 | A (80-100) | 50 to 100
COc1c(Cl)cc([C@H]2[C@H](C(=O)Nc3ccc(Cl)c(C(=O)NCCF)c3)C2(Cl)Cl)cc1Cl (relative stereo) [F86, trans-2-Chloro-5-(2,2-dichloro-3-(3,5-dichloro-4-methoxyphenyl)cyclopropane-1-carboxamido)-N-(2-fluoroethyl)benzamide] | 50 to 100 | B (More than 0-Less than 80) | 50 to 100
O=C(NCCC(F)(F)C(F)(F)F)c1cc(NC(=O)[C@H]2[C@H](c3cc(Cl)cc(Cl)c3)C2(Cl)Cl)ccc1Cl (relative stereo) [F60, trans-2-Chloro-5-(2,2-dichloro-3-(3,5-dichlorophenyl)cyclopropane-1-carboxamido)-N-(3,3,4,4,4-pentafluorobutyl)benzamide] | 50 to 100 | D (No activity noticed in this bioassay) | 50 to 100
CCNC(=O)c1cc(NC(=O)[C@H]2[C@H](c3ccc(F)c(Cl)c3)C2(Cl)Cl)ccc1Cl (relative stereo) [F103, trans-2-Chloro-5-(2,2-dichloro-3-(3-chloro-4-fluorophenyl)cyclopropane-1-carboxamido)-N-ethylbenzamide] | 50 to 100 | A (80-100) | 50 to 100
